According to patent publication US9120749B2, “Quinoline derivatives and MELK inhibitors containing the same” (ONCOTHERAPY SCIENCE, INC., priority 2010, dated 2015):
Where a name gives a salt, the structure may show the parent alone. Read-outs that look alike come from different tables or passages of the source.

Tests used:
T47D cells = experiment: Cell-based assay: anti-proliferative activity, Cell Counting Kit-8, 72 hours (T47D)
Outline: (§1)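 First, lysates underwent western blotting with anti-MELK antibody to establish expression. Next, cells went into 96-well plates. Then candidate inhibitors were added. Finally, viability was determined by CCK-8 at 72 h and IC50 computed.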

HT-1197 cells = experiment: Cell-based assay: anti-proliferative activity, Cell Counting Kit-8, 72 hours (HT-1197, negative control without MELK expression); conditions: HT1197 cells (negative control), 72 hours
Outline: as §1

A549 cells = experiment: Cell-based assay: anti-proliferative activity, Cell Counting Kit-8, 72 hours (A549); conditions: 72 hours
Outline: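 A549 cells were seeded in 96-well plates and exposed to candidate inhibitors for 72 hours. Cell growth was then measured with Cell Counting Kit-8, and IC50 values were calculated from the resulting growth data.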

MELK = MELK (Homo sapiens, UniProt Q14680); experiment: Kinase assay: MELK activity, phosphorylation of FITC-labeled histone H3 peptide measured by IMAP fluorescence polarization; type: biochemical; conditions: read-out: IC50 (μM) (kinase assay)
Sequence of MELK (Q14680 whole entry, looked up): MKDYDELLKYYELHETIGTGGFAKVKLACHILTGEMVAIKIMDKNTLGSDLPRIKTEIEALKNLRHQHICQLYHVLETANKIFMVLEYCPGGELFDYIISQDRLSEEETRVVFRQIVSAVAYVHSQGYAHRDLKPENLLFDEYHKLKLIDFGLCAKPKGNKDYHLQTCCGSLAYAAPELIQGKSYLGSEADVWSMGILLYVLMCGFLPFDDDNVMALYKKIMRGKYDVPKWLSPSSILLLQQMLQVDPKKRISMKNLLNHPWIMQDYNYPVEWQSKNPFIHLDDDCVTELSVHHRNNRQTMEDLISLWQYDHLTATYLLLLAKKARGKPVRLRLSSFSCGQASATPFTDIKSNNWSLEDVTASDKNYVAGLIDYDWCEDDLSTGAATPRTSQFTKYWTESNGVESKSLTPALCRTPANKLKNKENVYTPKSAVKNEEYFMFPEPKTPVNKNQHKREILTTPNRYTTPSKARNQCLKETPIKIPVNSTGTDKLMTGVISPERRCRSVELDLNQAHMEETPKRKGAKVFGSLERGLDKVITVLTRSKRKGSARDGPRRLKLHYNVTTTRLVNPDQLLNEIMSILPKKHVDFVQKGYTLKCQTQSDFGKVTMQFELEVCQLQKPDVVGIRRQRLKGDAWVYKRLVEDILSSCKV
Outline: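 Kinase reactions ran with or without test compound (final DMSO 1%) on a fluorescein-tagged H3 peptide. Progressive binding solution was added to terminate them. After a half-hour room-temperature incubation, polarization was measured.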

DU4475 cells = experiment: Cell-based assay: anti-proliferative activity, Cell Counting Kit-8, 72 hours (DU4475)

| Structure (SMILES) | IC50 (T47D cells; Homo sapiens, T47D, 72 h) [µM] | IC50 (HT-1197 cells; Homo sapiens, HT1197, 72 h) [µM] | IC50 (A549 cells; Homo sapiens, A549, 72 h) [µM] | IC50 (MELK) [µM] | IC50 (DU4475 cells; Homo sapiens, DU-4475, 72 h) [µM] | IC50 (T47D cells; 72 hours, hydrochloride) [µM] | IC50 (HT-1197 cells; hydrochloride) [µM] | IC50 (A549 cells; hydrochloride) [µM] | IC50 (MELK; hydrochloride) [µM] | IC50 (DU4475 cells; hydrochloride) [µM] |
| --- | --- | --- | --- | --- | --- | --- | --- | --- | --- | --- |
| CN(C)CCc1ccc(Nc2c(C(=O)C3CC3)cnc3ccc(-c4cc(Cl)c(O)c(Cl)c4)cc23)cc1 [Example 613, Cyclopropyl(6-(3,5-dichloro-4-hydroxyphenyl)-4-(4-(2-(dimethylamino)ethyl)phenylamino)quinolin-3-yl)methanone] | 0.13 | 1 | 0.075 | 0.0022 | 0.028 |  |  |  |  |  |
| O=C(c1cnc2ccc(-c3cc(Cl)c(O)c(Cl)c3)cc2c1N[C@H]1CC[C@H](CN2CCC(O)C2)CC1)C1CC1 (stereo partly drawn) [Example 600, cyclopropyl(6-(3,5-dichloro-4-hydroxyphenyl)-4-((trans-4-((3-hydroxypyrrolidin-1-yl)methyl)cyclohexyl)amino)quinolin-3-yl)methanone] | 0.078 | 0.76 | 0.12 | 0.00073 | 0.029 |  |  |  |  |  |
| NC1CCCN(c2ccc(Nc3c(C(=O)C4CC4)cnc4ccc(-c5cc(Cl)c(O)c(Cl)c5)cc34)cn2)C1 (stereo not shown) [Example 556, (4-(6-(3-aminopiperidin-1-yl)pyridin-3-ylamino)-6-(3,5-dichloro-4-hydroxyphenyl)quinolin-3-yl)(cyclopropyl)methanone] | 0.03 | 0.96 | 0.023 | 0.0044 | 0.016 |  |  |  |  |  |
| COc1cc(-c2ccc3ncc(C(=O)C4CC4)c(N4CCC(C5CCNCC5)CC4)c3c2)cc(Cl)c1O [Example 595, (4-(4,4′-bipiperidin-1-yl)-6-(3-chloro-4-hydroxy-5-methoxyphenyl)quinolin-3-yl)(cyclopropyl)methanone] | 0.41 | 3.4 | 0.57 | 0.0042 | 0.64 |  |  |  |  |  |
| COc1cc(-c2ccc3ncc(C(=O)C4CC4)c(C4=CCN(C(=O)CN(C)C)CC4)c3c2)cc(Cl)c1O [Example 521, 1-(4-(6-(3-chloro-4-hydroxy-5-methoxyphenyl)-3-(cyclopropanecarbonyl)quinolin-4-yl)-5,6-dihydropyridin-1(2H)-yl)-2-(dimethylamino)ethanone] | 0.22 | 1.5 | 0.18 | 0.0024 | 0.27 |  |  |  |  |  |
| O=C(c1cnc2ccc(-c3ccc(O)c(Cl)c3)cc2c1Nc1cnn(C2CCNCC2)c1)C1CC1 [Example 519, (6-(3-chloro-4-hydroxyphenyl)-4-((1-(piperidin-4-yl)-1H-pyrazol-4-yl)amino)quinolin-3-yl)(cyclopropyl)methanone] | 0.12 | 1.6 | 0.14 | 0.003 | 0.1 |  |  |  |  |  |
| NC1CCN(c2ccc(Nc3c(C(=O)C4CC4)cnc4ccc(-c5cc(Cl)c(O)c(Cl)c5)cc34)cn2)CC1 [Example 549, (4-(6-(4-Aminopiperidin-1-yl)pyridin-3-ylamino)-6-(3,5-dichloro-4-hydroxyphenyl)quinolin-3-1)(cyclopropyl)methanone hydrochloride] |  |  |  |  |  | 0.15 | 3.2 | 0.48 | 0.0027 | 0.078 |
| COc1cc(-c2cc3c(Nc4ccc(CN(C)C)cc4)c(C(=O)C4CC4)cnc3cc2F)cc(Cl)c1O [Example 540, (6-(3-chloro-4-hydroxy-5-methoxyphenyl)-4-(4-((dimethylamino)methyl)phenylamino)-7-fluoroquinolin-3-yl)(cyclopropyl)methanone] | 0.89 | 3.7 | 0.25 | 0.064 | 0.35 |  |  |  |  |  |
| O=C(c1cnc2ccc(-c3cc(Cl)c(O)c(Cl)c3)cc2c1Nc1cnn(C2CCNCC2)c1)C1CC1 [Example 511, cyclopropyl(6-(3,5-dichloro-4-hydroxyphenyl)-4-((1-(piperidin-4-yl)-1H-pyrazol-4-yl)amino)quinolin-3-yl)methanone] | 0.18 | 10 | 0.31 | 0.017 | 0.019 |  |  |  |  |  |
| COc1cc(-c2ccc3ncc(C(=O)C4CC4)c(C4=CCNCC4)c3c2)cc(Cl)c1O [Example 516, (6-(3-chloro-4-hydroxy-5-methoxyphenyl)-4-(1,2,3,6-tetrahydropyridin-4-yl)quinolin-3-yl)(cyclopropyl)methanone] | 0.52 | 3 | 0.36 | 0.0044 | 0.66 |  |  |  |  |  |
| COc1cc(-c2ccc3ncc(C(=O)C4CC4)c(N[C@H]4CC[C@H](CN5CCCC5)CC4)c3c2)cc(Cl)c1O [Example 586] | 0.38 | 3 | 0.2 | 0.0028 | 0.19 |  |  |  |  |  |
